Entries after “also recorded” stand apart in the source; their conditions may differ.
How the values were obtained:
[1] = target: T1, mCB2R (Mus musculus, UniProt P47936); experiment: [35S]GTPγS assay; assay type: biochemical; set-up: from tissue; host or cells: spleen of male C57BL/6J mice
[2] = test system: C57BL6/J mice; experiment: Triad assay: antinociception; assay type: in vivo, mouse; settings: 1-100 mg kg^−1 i.p., cumulative, mice
[3] = target: T2, NOP (ORL1) (h) (Homo sapiens, UniProt P41146); experiment: CEREP panel; assay type: binding; settings: 10 µM
T2 construct: CEREP (contract assay)

[4] = test system: P2X; experiment: CEREP panel; assay type: binding; settings: 10 µM
[5] = target: T3, NTS1 (NT1) (h) (Homo sapiens, UniProt P30989); experiment: CEREP panel; assay type: binding; settings: 10 µM
T3 construct: CEREP (contract assay)

[6] = test system: C57BL6/J mice; experiment: Triad assay: catalepsy; assay type: in vivo, mouse; settings: 1-100 mg kg^−1 i.p., cumulative, mice
[7] = test system: sigma (non-selective) (h); assay type: binding, human; settings: 10 µM
[8] = target: T4, PAC1 (PACAP) (h) (Homo sapiens, UniProt P41586); experiment: CEREP panel; assay type: binding; settings: 10 µM
T4 construct: CEREP (contract assay)
T4 sequence (P41586 21-468): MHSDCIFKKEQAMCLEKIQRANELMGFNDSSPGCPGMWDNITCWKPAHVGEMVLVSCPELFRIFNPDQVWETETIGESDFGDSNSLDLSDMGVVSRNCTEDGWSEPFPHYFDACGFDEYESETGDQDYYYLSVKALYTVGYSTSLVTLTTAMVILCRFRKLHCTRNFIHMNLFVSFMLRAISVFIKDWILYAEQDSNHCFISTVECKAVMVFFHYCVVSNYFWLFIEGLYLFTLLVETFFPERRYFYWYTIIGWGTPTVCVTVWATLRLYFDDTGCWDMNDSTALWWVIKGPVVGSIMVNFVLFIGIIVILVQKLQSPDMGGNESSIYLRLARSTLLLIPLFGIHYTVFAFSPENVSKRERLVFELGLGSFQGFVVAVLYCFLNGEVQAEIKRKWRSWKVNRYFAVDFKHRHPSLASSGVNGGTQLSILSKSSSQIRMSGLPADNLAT

[9] = target: T5, beta 2 (h) (Homo sapiens, UniProt P07550); experiment: CEREP panel; assay type: binding; settings: 10 µM
T5 construct: CEREP

[10] = test system: P2Y; experiment: CEREP panel; assay type: binding; settings: 10 µM
[11] = target: T6, MT1 (ML1A) (h) (Homo sapiens, UniProt P48039); experiment: CEREP panel; assay type: binding; settings: 10 µM
T6 construct: CEREP (contract assay)

[12] = target: T7, BZD (peripheral) (Rattus norvegicus, UniProt P16257); experiment: CEREP panel; assay type: binding; settings: 10 µM
T7 construct: CEREP

[13] = target: T8, AT2 (h) (Homo sapiens, UniProt P50052); experiment: CEREP panel; assay type: binding; settings: 10 µM
T8 construct: CEREP
T8 sequence (P50052 1-363): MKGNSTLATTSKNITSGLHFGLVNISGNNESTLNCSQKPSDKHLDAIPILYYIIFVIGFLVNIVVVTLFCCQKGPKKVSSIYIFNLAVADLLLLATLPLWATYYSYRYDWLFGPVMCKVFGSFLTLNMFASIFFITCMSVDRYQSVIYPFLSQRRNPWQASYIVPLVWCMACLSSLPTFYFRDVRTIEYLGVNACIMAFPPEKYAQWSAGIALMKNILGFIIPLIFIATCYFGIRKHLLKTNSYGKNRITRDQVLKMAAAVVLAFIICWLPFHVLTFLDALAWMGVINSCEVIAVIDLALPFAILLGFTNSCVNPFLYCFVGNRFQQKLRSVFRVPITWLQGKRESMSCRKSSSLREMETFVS

[14] = target: T9, NK1 (h) (Homo sapiens, UniProt P25103); experiment: CEREP panel; assay type: binding; settings: 10 µM
T9 construct: CEREP (contract assay)

[15] = target: T10, CB1 (h) (Homo sapiens, UniProt P21554); experiment: biochemical; assay type: binding; settings: 10 µM
T10 construct: CEREP (contract assay)

[16] = target: T1, mCB2R; experiment: Operational analysis of biased signalling; settings: for ΔLogR GTPγS / ΔLogR cAMP / ΔLogR β-AR: reference CP55940; for RE GTPγS / RE cAMP / RE β-AR: relative effectiveness
[17] = in vitro; settings: both, human, microsomes, pH 7.4
[18] = target: T11, 5-HT2A (h) (Homo sapiens, UniProt P28223); experiment: CEREP panel; assay type: binding; settings: for % inhibition 5-HT2A (h): 10 µM
T11 construct: CEREP (contract assay)

[19] = test system: Cl- channel (GABA-gated); experiment: CEREP panel; assay type: binding; settings: 10 µM
[20] = target: human P-gp (Homo sapiens, UniProt P08183); settings: efflux ratio
[21] = target: T12, COX2 (h) (Homo sapiens, UniProt P35354); experiment: CEREP panel, enzyme and cell-based assays; assay type: biochemical; settings: 10 µM
T12 construct: CEREP (contract assay)

[22] = target: T13, 5-HT1A (h) (Homo sapiens, UniProt P08908); experiment: CEREP panel; assay type: binding
T13 construct: CEREP (contract assay)

[23] = target: T14, sst4 (h) (Homo sapiens, UniProt P31391); experiment: CEREP panel; assay type: binding
T14 construct: CEREP (contract assay)

[24] = target: T15, M4 (h) (Homo sapiens, UniProt P08173); experiment: CEREP panel; assay type: binding
T15 construct: CEREP (contract assay)
T15 sequence (P08173 whole entry): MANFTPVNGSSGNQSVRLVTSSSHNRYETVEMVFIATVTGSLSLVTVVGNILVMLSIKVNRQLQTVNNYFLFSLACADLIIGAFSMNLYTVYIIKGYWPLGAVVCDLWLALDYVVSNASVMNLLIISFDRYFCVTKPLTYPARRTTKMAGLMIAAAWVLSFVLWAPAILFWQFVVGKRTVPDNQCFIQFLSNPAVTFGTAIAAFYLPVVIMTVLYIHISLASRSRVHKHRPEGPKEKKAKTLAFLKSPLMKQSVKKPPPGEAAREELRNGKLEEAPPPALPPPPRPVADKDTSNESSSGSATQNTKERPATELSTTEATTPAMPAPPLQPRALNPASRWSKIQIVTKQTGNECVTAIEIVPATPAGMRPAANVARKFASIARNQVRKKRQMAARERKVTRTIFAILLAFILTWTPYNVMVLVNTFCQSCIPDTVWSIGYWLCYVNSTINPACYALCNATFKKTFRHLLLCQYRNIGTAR

T1 sequence (P47936 whole entry): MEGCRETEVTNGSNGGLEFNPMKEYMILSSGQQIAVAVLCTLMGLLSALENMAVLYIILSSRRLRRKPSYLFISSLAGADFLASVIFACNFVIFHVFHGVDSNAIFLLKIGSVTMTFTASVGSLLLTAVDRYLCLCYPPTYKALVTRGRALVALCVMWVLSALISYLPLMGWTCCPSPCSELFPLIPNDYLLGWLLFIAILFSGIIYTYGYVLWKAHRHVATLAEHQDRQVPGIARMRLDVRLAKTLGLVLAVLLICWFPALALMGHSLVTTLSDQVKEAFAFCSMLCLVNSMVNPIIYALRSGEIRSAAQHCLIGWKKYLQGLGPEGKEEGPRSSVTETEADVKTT
T11 sequence (P28223 whole entry): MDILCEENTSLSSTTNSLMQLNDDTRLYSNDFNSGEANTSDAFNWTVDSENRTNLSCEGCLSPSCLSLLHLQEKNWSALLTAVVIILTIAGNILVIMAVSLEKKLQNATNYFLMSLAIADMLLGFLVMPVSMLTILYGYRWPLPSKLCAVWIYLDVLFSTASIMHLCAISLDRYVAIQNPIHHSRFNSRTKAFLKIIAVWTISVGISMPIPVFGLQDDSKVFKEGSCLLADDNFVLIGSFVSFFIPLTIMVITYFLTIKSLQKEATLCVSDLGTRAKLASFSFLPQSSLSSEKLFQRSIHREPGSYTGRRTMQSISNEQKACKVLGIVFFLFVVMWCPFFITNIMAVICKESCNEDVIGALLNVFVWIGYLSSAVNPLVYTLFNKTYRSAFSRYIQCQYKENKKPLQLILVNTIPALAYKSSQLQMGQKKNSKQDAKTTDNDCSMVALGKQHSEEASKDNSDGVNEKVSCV
T5 sequence (P07550 whole entry): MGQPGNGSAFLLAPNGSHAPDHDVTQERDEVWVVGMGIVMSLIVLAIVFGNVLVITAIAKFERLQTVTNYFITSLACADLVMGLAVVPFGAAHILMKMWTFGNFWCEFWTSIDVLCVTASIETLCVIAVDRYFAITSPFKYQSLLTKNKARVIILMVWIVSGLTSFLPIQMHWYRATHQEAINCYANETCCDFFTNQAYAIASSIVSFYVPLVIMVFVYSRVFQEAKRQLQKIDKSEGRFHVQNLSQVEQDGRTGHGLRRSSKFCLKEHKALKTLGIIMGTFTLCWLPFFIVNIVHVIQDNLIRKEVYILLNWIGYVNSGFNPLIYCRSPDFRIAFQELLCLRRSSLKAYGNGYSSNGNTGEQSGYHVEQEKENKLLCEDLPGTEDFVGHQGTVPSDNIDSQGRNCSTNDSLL
T9 sequence (P25103 whole entry): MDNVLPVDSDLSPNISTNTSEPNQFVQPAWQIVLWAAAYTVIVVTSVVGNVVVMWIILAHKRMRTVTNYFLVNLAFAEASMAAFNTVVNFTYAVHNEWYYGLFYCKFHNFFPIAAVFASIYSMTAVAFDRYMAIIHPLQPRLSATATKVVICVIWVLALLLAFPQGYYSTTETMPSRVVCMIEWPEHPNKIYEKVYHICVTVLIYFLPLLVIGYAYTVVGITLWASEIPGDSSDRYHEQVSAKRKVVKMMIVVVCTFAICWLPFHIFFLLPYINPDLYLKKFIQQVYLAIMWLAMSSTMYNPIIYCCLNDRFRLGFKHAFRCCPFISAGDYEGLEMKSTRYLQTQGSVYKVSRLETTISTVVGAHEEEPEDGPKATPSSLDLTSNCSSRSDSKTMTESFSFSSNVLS
T13 sequence (P08908 whole entry): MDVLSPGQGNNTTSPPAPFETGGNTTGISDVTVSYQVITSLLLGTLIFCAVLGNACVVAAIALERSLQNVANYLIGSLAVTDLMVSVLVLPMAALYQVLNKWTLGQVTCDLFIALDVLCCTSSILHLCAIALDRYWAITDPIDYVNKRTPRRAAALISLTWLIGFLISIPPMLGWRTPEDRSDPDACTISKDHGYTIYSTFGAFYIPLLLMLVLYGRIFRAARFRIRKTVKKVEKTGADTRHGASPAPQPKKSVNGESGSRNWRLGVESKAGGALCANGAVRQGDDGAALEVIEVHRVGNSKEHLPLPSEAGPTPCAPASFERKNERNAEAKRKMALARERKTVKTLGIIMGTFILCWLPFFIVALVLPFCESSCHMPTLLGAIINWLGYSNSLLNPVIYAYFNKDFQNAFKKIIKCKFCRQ
T12 sequence (P35354 18-604): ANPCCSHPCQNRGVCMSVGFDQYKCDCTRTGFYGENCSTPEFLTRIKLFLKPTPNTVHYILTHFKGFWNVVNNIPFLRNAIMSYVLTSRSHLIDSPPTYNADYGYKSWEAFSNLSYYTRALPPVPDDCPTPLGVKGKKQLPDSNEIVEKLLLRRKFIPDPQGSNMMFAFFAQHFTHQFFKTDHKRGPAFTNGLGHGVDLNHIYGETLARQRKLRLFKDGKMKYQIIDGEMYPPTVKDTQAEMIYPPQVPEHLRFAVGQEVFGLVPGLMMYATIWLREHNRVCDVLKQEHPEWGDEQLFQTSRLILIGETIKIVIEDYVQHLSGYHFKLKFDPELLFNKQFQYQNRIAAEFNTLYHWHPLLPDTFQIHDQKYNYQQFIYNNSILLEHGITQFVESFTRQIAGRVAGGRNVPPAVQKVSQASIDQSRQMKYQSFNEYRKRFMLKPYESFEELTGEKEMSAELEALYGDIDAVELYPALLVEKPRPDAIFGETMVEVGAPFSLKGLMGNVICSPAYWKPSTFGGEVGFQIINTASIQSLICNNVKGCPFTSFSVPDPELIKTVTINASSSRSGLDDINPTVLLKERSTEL
T2 sequence (P41146 whole entry): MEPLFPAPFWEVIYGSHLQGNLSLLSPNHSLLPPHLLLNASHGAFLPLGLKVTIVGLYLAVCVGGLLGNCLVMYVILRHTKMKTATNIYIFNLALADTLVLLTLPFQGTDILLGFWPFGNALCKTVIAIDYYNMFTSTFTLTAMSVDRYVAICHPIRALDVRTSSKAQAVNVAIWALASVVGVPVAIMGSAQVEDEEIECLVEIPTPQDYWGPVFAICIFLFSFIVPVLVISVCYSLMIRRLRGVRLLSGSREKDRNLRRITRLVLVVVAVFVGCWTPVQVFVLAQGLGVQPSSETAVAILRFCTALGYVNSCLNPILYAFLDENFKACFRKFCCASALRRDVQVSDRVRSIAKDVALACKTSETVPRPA
T6 sequence (P48039 whole entry): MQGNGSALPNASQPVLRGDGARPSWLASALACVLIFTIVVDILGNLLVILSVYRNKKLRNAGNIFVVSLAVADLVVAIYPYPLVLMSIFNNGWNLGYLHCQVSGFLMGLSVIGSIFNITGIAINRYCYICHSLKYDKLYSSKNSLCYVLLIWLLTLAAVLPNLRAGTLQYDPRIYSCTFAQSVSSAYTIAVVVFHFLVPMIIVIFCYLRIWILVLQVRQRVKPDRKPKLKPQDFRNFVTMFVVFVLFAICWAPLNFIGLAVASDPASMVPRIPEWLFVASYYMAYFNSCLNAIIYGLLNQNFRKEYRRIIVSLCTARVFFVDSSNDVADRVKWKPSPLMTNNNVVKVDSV
T14 sequence (P31391 whole entry): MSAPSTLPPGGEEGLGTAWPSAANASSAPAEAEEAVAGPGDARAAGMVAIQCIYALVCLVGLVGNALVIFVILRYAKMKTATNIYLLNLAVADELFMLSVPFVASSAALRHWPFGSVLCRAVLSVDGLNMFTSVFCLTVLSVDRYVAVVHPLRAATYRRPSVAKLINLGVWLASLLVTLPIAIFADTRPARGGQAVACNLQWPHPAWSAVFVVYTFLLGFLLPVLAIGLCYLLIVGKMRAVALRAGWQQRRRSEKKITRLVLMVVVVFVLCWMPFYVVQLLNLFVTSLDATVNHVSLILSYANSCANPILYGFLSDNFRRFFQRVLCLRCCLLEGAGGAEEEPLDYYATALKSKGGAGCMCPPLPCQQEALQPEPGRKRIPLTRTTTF
T7 sequence (P16257 whole entry): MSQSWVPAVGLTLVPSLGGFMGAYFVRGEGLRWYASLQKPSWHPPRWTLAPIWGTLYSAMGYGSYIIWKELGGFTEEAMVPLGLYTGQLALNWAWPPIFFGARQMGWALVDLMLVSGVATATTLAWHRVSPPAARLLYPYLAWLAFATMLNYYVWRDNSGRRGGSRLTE
T3 sequence (P30989 whole entry): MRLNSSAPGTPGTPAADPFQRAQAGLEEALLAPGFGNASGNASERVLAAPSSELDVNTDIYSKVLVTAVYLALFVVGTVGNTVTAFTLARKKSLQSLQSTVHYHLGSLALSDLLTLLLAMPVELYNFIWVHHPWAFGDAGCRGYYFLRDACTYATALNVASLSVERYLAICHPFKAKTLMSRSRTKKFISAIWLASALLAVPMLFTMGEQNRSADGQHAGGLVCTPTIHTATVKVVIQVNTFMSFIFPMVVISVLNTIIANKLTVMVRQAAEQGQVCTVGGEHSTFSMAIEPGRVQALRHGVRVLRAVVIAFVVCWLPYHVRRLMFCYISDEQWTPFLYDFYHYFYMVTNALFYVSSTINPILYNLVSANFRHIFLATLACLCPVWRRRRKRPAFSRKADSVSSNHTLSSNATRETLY

CCCC(C)(C)c1ccc2c(c1)OC(C)(C)[C@@H]1CC=C(C)C[C@@H]21 [JWH133]
pEC50 ± SEM GTPγS mCB2R [1]: 7.03 ± 0.14 | Emax ± SEM GTPγS mCB2R ([1]; normalized to 10 µM CP55940): 103 ± 7% | antinociception, cannabimimetic effect [2]: did not produce detectable; also recorded: lacked appreciable pharmacological effects | % inhibition NOP (ORL1) (h) [3]: -5% | % inhibition P2X [4]: -5% | % inhibition NTS1 (NT1) (h) [5]: 0% | catalepsy, cannabimimetic effect [6]: did not produce detectable; also recorded: lacked appreciable pharmacological effects | % inhibition sigma (non-selective) (h) [7]: 2% | % inhibition PAC1 (PACAP) (h) [8]: 12% | % inhibition beta 2 (h) [9]: -15% | % inhibition P2Y [10]: 3% | % inhibition MT1 (ML1A) (h) [11]: -4% | % inhibition BZD (peripheral) [12]: -1% | % inhibition AT2 (h) [13]: 0% | % inhibition NK1 (h) [14]: 13% | % inhibition CB1 (h) [15]: 6 | GTPγS-cAMP bias factor (BF) [16]: 50.9 | GTPγS-cAMP ΔΔlogR [16]: 1.71 ± 0.18 | LogR GTPγS [16]: 7.07 ± 0.05 | LogR cAMP [16]: 8.07 ± 0.09 | LogR β-AR [16]: 6.57 ± 0.12 | β-AR-GTPγS bias factor (BF) [16]: 0.21 | β-AR-GTPγS ΔΔlogR [16]: -0.67 ± 0.15 | β-AR-cAMP bias factor (BF) [16]: 10.9 | β-AR-cAMP ΔΔlogR [16]: 1.04 ± 0.21 | ΔLogR GTPγS [16]: -0.75 ± 0.07 | ΔLogR cAMP [16]: -2.45 ± 0.17 | ΔLogR β-AR [16]: -1.42 ± 0.13 | RE GTPγS [16]: 0.18 | RE cAMP [16]: 0.004 | RE β-AR [16]: 0.04

CCCCC/C=C\C/C=C\C/C=C\C/C=C\CCCC(=O)NCCO [Anandamide, N-arachidonoylethanolamine]
microsomal CLint [17]: 47 µL/min/mg

CCCn1c(C)c(C(=O)c2cccc3ccccc23)c2ccccc21 [JWH015]
% inhibition 5-HT2A (h) [18]: 56%

COc1ccc(C(=O)c2c(C)n(CCN3CCOCC3)c3cc(I)ccc23)cc1 [AM630]
% inhibition Cl- channel (GABA-gated) [19]: 87% | P-gp (ER) human [20]: 1.3 | % inhibition beta 2 (h) [9]: 11% | Plasma protein binding mouse: 0.4 %free | % inhibition 5-HT2A (h) [18]: 70% | % inhibition COX2 (h) [21]: 96%

CCCCCCC(C)(C)c1ccc([C@@H]2C[C@H](O)CC[C@H]2CCCO)c(O)c1 [CP55940]
EC50 [1]: 16.2 nM | Emax ([1]; read-out: Emax ± SEM GTPγS mCB2R): 102 ± 1% | inhibition at 10 µM [22]: 92% | inhibition at 10 µM [23]: 63% | inhibition at 10 µM [24]: 55% | microsomal CLint [17]: 80 µL/min/mg | inhibition at 10 µM [18]: 95% | GTPγS-cAMP bias factor (BF) [16]: 1 | GTPγS-cAMP ΔΔlogR [16]: 0 ± 0.21 | LogR GTPγS [16]: 7.82 ± 0.05 | LogR cAMP [16]: 10.52 ± 0.14 | LogR β-AR [16]: 8.0 ± 0.06 | β-AR-GTPγS bias factor (BF) [16]: 1 | β-AR-GTPγS ΔΔlogR [16]: 0 ± 0.10 | β-AR-cAMP bias factor (BF) [16]: 1 | β-AR-cAMP ΔΔlogR [16]: 0 ± 0.21 | ΔLogR GTPγS [16]: 0 ± 0.07 | ΔLogR cAMP [16]: 0 ± 0.20 | ΔLogR β-AR [16]: 0 ± 0.08 | RE GTPγS [16]: 1.00 | RE cAMP [16]: 1.00 | RE β-AR [16]: 1.00

— article PMC5216056 (Nature Communications, 2017)
